# Earlier results as cited in patent publication US6525095B1, “Propionate feed supplement” (New Mexico State University Technology Transfer Corporation, priority 2000, dated 2003).
# Tested on: swine
# Details: for Average daily gain / Average feed intake per day / Total insulin: 200 ppb chromium in feed
Molecule,Average daily gain,Average feed intake per day,Total insulin,Glucose clearance (during the insulin challenge),Glucose half-life (during the insulin challenge)
CCC(=O)[O-].CCC(=O)[O-].CCC(=O)[O-].[Cr+3] [chromium (III) propionate],decrease,decrease,remained unaffected,increased slightly more,decreased
chromium (III) tripicolinate,decrease,decrease,remained unaffected,,decreased
